The results in this text go back to patent publication US20160009752A1, “[…]-OXIMINO-AMINOALKYLETHERS AND PROCESS FOR PREPARATION THEREOF, USEFUL AS ANTIDIABETIC AND […] AGENTS” (COUNCIL OF SCIENTIFIC & INDUSTRIAL RESEARCH, priority 2013, published 2016).

Data set [1] has as its system sucrose loaded rat. As to the kind of experiment: Sucrose loaded rat model (SLM), oral tolerance test. Format: in vivo. Set-up: % Antihyperglycemic activity SLM: concentration or dose not given beside the values. The following applies: for % Antihyperglycemic activity SLM: Table 2, sucrose loaded rat. The source says: On the day of experiment blood glucose of all the overnight fasted animals was checked by Glucostrips (Roche) using Glucometer (ACCU-CHEK II; Roche Diagnostics, USA). […] Animals were divided into groups consisting of five animals in each. […] The test compounds and standard drug was always prepared in the vehicle 1% gum acacia. […] Food (not water) was removed from the cages during the experimental period. […] Comparing the AUC of test sample or drug treated groups compared to control group determined the percent improvement in OGTT by test sample and standard drugs and termed as antihyperglycaemic activity. Statistical analysis between the groups was done by employing Students t test

For data set [2], the system named is sucrose challenged low dosed STZ-induced diabetic rats. Briefly: Sucrose challenged low dosed streptozotocin-induced diabetic rats (STZ-S). Format: in vivo, rat. The following applies: for % Antihyperglycemic activity STZ-S 0-5 hr / % Antihyperglycemic activity STZ-S 0-24 hr: Table 2. On the procedure:
Fasting blood glucose level of each animal was measured after 48 hours post STZ injection by Glucostrips (Roche) using Glucometer (ACCU-CHEK II; Roche Diagnostics, USA) and animals showing blood glucose level above 280 mg/dl were considered as diabetic. The diabetic rats with fasting blood glucose values varying between […] were included in this study. Animals were divided into groups consisting of five animals in each. Group one was considered as a control group, where as the other groups were termed as experimental groups. […] The test samples and standard drug (Metformin) was always prepared in the vehicle 1% gum acacia. […] Food (not water) was removed from the cages during the experimental period. […] The percent decline in AUC of the experiment group compared to sham treated control group termed as % antihyperglycaemic activity. Statistical analysis between the groups was done by employing Students t test.

Data set [3] relates to high fructose high fat fed Syrian golden hamsters. As to the kind of experiment: Antidyslipidemic activity in high fructose high fat fed Syrian golden hamsters. Format: in vivo. On the procedure:
Male Syrian golden hamsters weighing 100-120 g were divided into groups each containing six animals. Dyslipidemia was produced by feeding the animals with high fructose high fat diet (60% fructose, 13% fat) for 30 to 40 days. Dyslipidemic hamsters were divided into groups based on their Serum lipid profile. The dyslipidemic animals had free access to HFD and water throughout the experimental period. The fine suspension of 14b was fed orally at a dose of 30 mg/kg for 7 days to the animals. Control animals were given drug vehicle only, served as sham treated control. Body weight and diet intake of each animal group were recorded daily to check the effect of the test samples on food intake and body weight of the animals. At the end of the experiment period i.e. on day 8th, the blood of each animal was withdrawn from retro-orbital plexus. After keeping the tubes for 15 min. in cold, Serum was separated. Biochemical analysis of Serum was performed on the same day for triglycerides (TG), total cholesterol (TC) and HDL-cholesterol and LDL-cholesterol contents using Cobas Integra 400 plus analyzer kits. All statistical analysis will be performed with Graph Pad Prism Software. One way ANOVA, all pair wise multiple comparison procedure (Tukey test). Data will be reported as mean±SEM.

The subject of data set [4] is STZ-induced diabetic rats. Briefly: Streptozotocin-induced diabetic rat model (STZ). The following applies: 100 mg/kg. The class given is in vivo. On the procedure:
Male albino rats (Sprague Dawley Strain) of body weight 160±20 g were procured from the colony of CDRI Animal House. 4 to 5 animals were kept in one polypropylene cage and acclimatized for one week in the new environment. The animals were made diabetic by injecting streptozotocin (STZ) intraperitoneally to the overnight starved animals at a dose of 60 mg/kg prepared in 100 mM citrate buffer (pH 4.5). Fasting blood glucose level of each animal was measured after 48 hours post STZ injection by Glucostrips (Roche) using Glucometer (ACCU-CHEK II; Roche Diagnostics, USA) and animals showing blood glucose level above 280 mg/dl were considered as diabetic. The diabetic rats with fasting blood glucose values varying between 280-450 mg/dl were included in this study. Animals were divided into groups consisting of five animals in each. Group one was considered as a control group, where as the other groups were termed as experimental groups. Rats of experimental group were usually given 100 mg/kg body weight of the test samples unless stated otherwise and standard drug i.e. metformin, respectively. The test samples and standard drug i.e. metformin was always prepared in the vehicle 1% gum acacia. 30 min post administration of the test samples/vehicle/standard drug, blood glucose levels of the animals of all the groups were measured at 30, 60, 90, 120, 180, 240, 300 and 1440 min. Food (not water) was removed from the cages during the experimental period. A plot was drawn between time and blood glucose levels on x and y axis, respectively and the area under curve (AUC) between 0 to 300 min were calculated of each group. The percent decline in AUC of the experiment group compared to sham treated control group termed as % antihyperglycaemic activity. Statistical comparison between the groups was done by employing Student's ‘t’ test.

Marks after values point to notes of the source that are not given here.

For `CC(=NO)[C@H]1CC[C@H]2[C@@H]3CC=C4C[C@@H](O)CC[C@]4(C)[C@H]3CC[C@]12C` [Compound 10., 3β-hydroxy-pregna-5-en-20-one-oxime], in data set [1], the “% Antihyperglycemic activity SLM” value was 13.9%.
Compound `C/C(=N\OCCN1CCCCC1)C1=CC[C@H]2[C@@H]3CC=C4C[C@@H](O)CC[C@]4(C)[C@H]3CC[C@]12C` [Compound 11a, 3β-Hydroxy-pregna-5,16-dien-20-one-O-(2-piperidinyl-ethyl)-oxime] gave a melting point of 135 to 138 °C. Also, the “% Antihyperglycemic activity SLM” value in data set [1] worked out at 27.15%.
`C/C(=N\OCCN1CCCCCC1)C1=CC[C@H]2[C@@H]3CC=C4C[C@@H](O)CC[C@]4(C)[C@H]3CC[C@]12C` [Compound 11b, 3β-Hydroxypregna-5,16-dien-20-one-O-(2-azepan-1-yl-ethyl)-oxime] displayed a melting point of 127 to 130 °C. In addition, the “% Antihyperglycemic activity SLM” value in data set [1] amounted to 16.5%.
For `C/C(=N\OCCN1CCOCC1)C1=CC[C@H]2[C@@H]3CC=C4C[C@@H](O)CC[C@]4(C)[C@H]3CC[C@]12C` [Compound 11c, 3β-Hydroxypregna-5,16-dien-20-one-O-(2-morpholin-4-yl-ethyl)-oxime], the “% Antihyperglycemic activity SLM” value in data set [1] came out at 10.2%.
On to `CCN(CC)CCO/N=C(\C)C1=CC[C@H]2[C@@H]3CC=C4C[C@@H](O)CC[C@]4(C)[C@H]3CC[C@]12C` [Compound 11d, 3β-Hydroxypregna-5,16-dien-20-one-O-(2-diethylamino-ethyl)-oxime], for which the melting point lay within 156 to 160 °C. In addition, in data set [1], the “% Antihyperglycemic activity SLM” value came to 13.1%.
The compound `C/C(=N\OCCN1CCCC1)[C@H]1CC[C@H]2[C@@H]3CC=C4C[C@@H](O)CC[C@]4(C)[C@H]3CC[C@]12C` [Compound 14a, 3β-Hydroxy-pregna-5-en-20-one-O-(2-pyrrolidin-1-yl-ethyl)-oxime] yielded a melting point of 140 to 142 °C. The “% Antihyperglycemic activity SLM” value in data set [1] came to 42.4%. In addition, the “anti-diabetic activity, in words” value in data set [1] (all the models including db/+ mice models) is “better anti-diabetic activity”. For the same compound, in data set [2], the “% Antihyperglycemic activity STZ-S 0-5 hr” value is recorded as 9.96% and the “% Antihyperglycemic activity STZ-S 0-24 hr” value was 3.07%.
Turning to `C/C(=N\OCC(O)CNC(C)(C)C)[C@H]1CC[C@H]2[C@@H]3CC=C4C[C@@H](O)CC[C@]4(C)[C@H]3CC[C@]12C` (stereo partly drawn) [Compound 16a, 3β-Hydroxy-pregna-5-en-20-one-O-[2-hydroxy-3-tert.-butylamino-propyl]-oxime], the melting point was more than 200 °C. Also, the “% Antihyperglycemic activity SLM” value in data set [1] was 37.7%.
In the case of `C/C(=N\OCC(O)CNC(C)C)C1CCC2C3CC=C4CC(O)CCC4(C)C3CCC12C` (stereo not drawn) [Compound 16b, 3β-Hydroxy-pregna-5-en-20-one-O-[2-hydroxy-3-iso-propylamino-Propyl)-oxime], the “% Antihyperglycemic activity SLM” value in data set [1] worked out at 13.6%.
Regarding `C/C(=N/OCC(O)CN1CCN(c2ccccc2)CC1)[C@H]1CC[C@H]2[C@@H]3CC=C4C[C@@H](O)CC[C@]4(C)[C@H]3CC[C@]12C` (stereo partly drawn) [Compound 16c, 3β-Hydroxy-pregna-5-en-20-one-O-[2-hydroxy-3-(4-phenyl-piperazin-1-yl)-propyl]-oxime], the “% Antihyperglycemic activity SLM” value in data set [1] is 17.8%.
Consider `COc1ccccc1N1CCN(CC(O)CO/N=C(/C)C2CCC3C4CC=C5CC(O)CCC5(C)C4CCC23C)CC1` (stereo not drawn) [Compound 16d, 3β-Hydroxy-pregna-5-en-20-one-O-{2-hydroxy-3-[4-(2-methoxyphenyl)-Piperzin-1-yl]-propyl}-oxime], for which the melting point is 145 to 149 °C. In addition, in data set [1], the “% Antihyperglycemic activity SLM” value amounted to 13.9%.
For the compound `CC(C)OC(=O)C(C)(C)Oc1ccc(C(=O)c2ccc(Cl)cc2)cc1` [Fenofibrate, reference compound], in data set [3] (30 mg/kg oral), the “enhancement of lipoprotein lipase” value was determined as 21.1%, the “enhancement of serum HDL-cholesterol” value is listed as 9.8%, the “lowering of LDL-cholesterol (LDL-C) level” value worked out at 30.1% and the “lowering of serum glycerol level” value turned out to be 22.4%. Besides, the “lowering of serum triglycerides level (TG)” value in data set [3] (30 mg/kg oral) stood at 28.9%. In data set [3] (30 mg/kg p.o., 7 days), the “Glycerol, change vs HFD control (in parentheses)” value was “(−22.4)* %”; the “HDL-C, change vs HFD control (in parentheses)” value is “(+9.80) %”; the “LDL-C, change vs HFD control (in parentheses)” value is “(−30.1)** %”; the “Lipoprotein lipase, change vs HFD control (in parentheses)” value is “(+21.1)* %”. For the same compound, in data set [3] (30 mg/kg p.o., 7 days), the “TG, change vs HFD control (in parentheses)” value was “(−28.9)* %”. For the same compound, in data set [3] (30 mg/kg p.o., 7 days, serum), the Chol came to 277.8 ± 22.3 mg/dL, the HDL-C is 156.8 ± 12.8 mg/dL, the Lipoprotein lipase was found to be 36.8 ± 3.60 U/L and the NEFA came out at 5.40 ± 0.30 mmol/L. This compound also came in with a TG in data set [3] (30 mg/kg p.o., 7 days, serum) of 529.8 ± 30.7 mg/dL.
On to `CN(C)C(=N)N=C(N)N` [Metformin, reference compound], for which, in data set [4], the “Blood glucose level, 0 min post sucrose load” value worked out at 358.4 ± 14.5 mg/dL; the “Blood glucose level, 30 min post sucrose load” value came to 450.0 ± 21.8 mg/dL; the “Blood glucose level, 60 min post sucrose load” value stood at 419.0 ± 10.5 mg/dL; the “Blood glucose level, 90 min post sucrose load” value came out at 399.0 ± 7.7 mg/dL. Also, in data set [4], the “Blood glucose level, 120 min post sucrose load” value came to 351.0 ± 16.0 mg/dL; the “Blood glucose level, 180 min post sucrose load” value was 349.6 ± 10.1 mg/dL; the “Blood glucose level, 240 min post sucrose load” value is 337.0 ± 7.7 mg/dL; the “Blood glucose level, 300 min post sucrose load” value is 299.8 ± 5.0 mg/dL. Moreover, the “Blood glucose level, 1440 min post sucrose load” value in data set [4] amounted to 445.6 ± 13.9 mg/dL. Besides, in data set [1] (100 mg/kg), the “Blood glucose profile, 0 min post glucose load” value came to 94.8 ± 2.1 mg/dL; the “Blood glucose profile, 30 min post glucose load” value was 111.4 ± 7.8 mg/dL; the “Blood glucose profile, 60 min post glucose load” value came out at 105.8 ± 2.1 mg/dL; the “Blood glucose profile, 90 min post glucose load” value was 94.0 ± 2.0 mg/dL. The “Blood glucose profile, 120 min post glucose load” value in data set [1] (100 mg/kg) was 84.2 ± 1.3 mg/dL. Moreover, the “% Antihyperglycaemic activity (improvement in OGTT post sucrose load)” value in data set [1] (100 mg/kg, AUC 0-120 min vs control, normal rats) is on record as 24.4*** %. Also, the “% Antihyperglycemic activity SLM” value in data set [1] was determined as 21.1%. Also, in data set [2] (100 mg/kg), the “% Antihyperglycemic activity 0-300 min” value is given as 23.7%**; the “% Antihyperglycemic activity 0-1440 min” value is reported as 23.1%**; the “Blood glucose level, 0 min post sucrose load” value came out at 222.2 ± 19.9 mg/dL; the “Blood glucose level, 30 min post sucrose load” value was 457.4 ± 17.2 mg/dL. In data set [2] (100 mg/kg), the “Blood glucose level, 60 min post sucrose load” value was determined as 524.2 ± 18.9 mg/dL; the “Blood glucose level, 90 min post sucrose load” value stood at 468.2 ± 11.3 mg/dL; the “Blood glucose level, 120 min post sucrose load” value turned out to be 416.0 ± 12.2 mg/dL; the “Blood glucose level, 180 min post sucrose load” value stood at 373.6 ± 11.4 mg/dL. For the same compound, in data set [2] (100 mg/kg), the “Blood glucose level, 240 min post sucrose load” value amounted to 345.0 ± 10.6 mg/dL; the “Blood glucose level, 300 min post sucrose load” value worked out at 310.8 ± 2.6 mg/dL; the “Blood glucose level, 1440 min post sucrose load” value was determined as 392.8 ± 9.9 mg/dL. For the same compound, in data set [2] (100 mg/kg, listed as metformin), the “% Antihyperglycemic activity 0-300 min” value is 23.7% and the “% Antihyperglycemic activity 0-1440 min” value is reported as 23.1%. Further, in data set [2], the “% Antihyperglycemic activity STZ-S 0-5 hr” value amounted to 25.8% and the “% Antihyperglycemic activity STZ-S 0-24 hr” value is 33.2%.

The term melting point denotes the temperature of the solid-liquid transition.
